Data published in PubChem BioAssay (NCI).
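48-hour exposure; five concentrations; linearly interpolated endpoints. At the GI50, growth is halved. TGI is the concentration that stops growth completely.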

Tests used:
Experiment in all cases: NCI-60 cell line screen, 48 h
786-0 renal = test system: 786-0 renal
HOP-62 NSCLC = test system: HOP-62 NSCLC
UACC-257 melanoma = test system: UACC-257 melanoma
U251 CNS = test system: U251 CNS
K-562 leukemia = test system: K-562 leukemia
OVCAR-3 ovarian = test system: OVCAR-3 ovarian
LOX IMVI melanoma = test system: LOX IMVI melanoma
OVCAR-4 ovarian = test system: OVCAR-4 ovarian
NCI-H522 lung = test system: NCI-H522 lung
MCF7 breast = test system: MCF7 breast

SMILES | TGI (786-0 renal) [µM] | TGI (HOP-62 NSCLC) [µM] | TGI (UACC-257 melanoma) [µM] | TGI (U251 CNS) [µM] | TGI (K-562 leukemia) [µM] | TGI (OVCAR-3 ovarian) [µM] | TGI (LOX IMVI melanoma) [µM] | TGI (OVCAR-4 ovarian) [µM] | TGI (NCI-H522 lung) [µM] | GI50 (786-0 renal) [µM] | GI50 (HOP-62 NSCLC) [µM] | GI50 (UACC-257 melanoma) [µM] | GI50 (NCI-H522 lung) [µM] | GI50 (MCF7 breast) [µM] | TGI (MCF7 breast) [µM] | GI50 (K-562 leukemia) [µM] | GI50 (OVCAR-3 ovarian) [µM] | GI50 (LOX IMVI melanoma) [µM] | GI50 (OVCAR-4 ovarian) [µM] | GI50 (U251 CNS) [µM]
C/C=C(/C)c1cnc(CC(C)C)c(=O)[nH]1 | > 100 | > 100 | > 100 | > 100 | > 100 | > 100 | > 100 | > 100 | – | – | – | – | – | – | – | – | – | – | – | –
Nc1ccc(C(=O)CC2(O)C(=O)Nc3c(Cl)cc(Cl)cc32)cc1 (stereo unspecified) | > 100 | > 100 | > 100 | 95.7 | > 100 | > 100 | > 100 | > 100 | > 100 | – | – | – | – | – | – | – | – | – | – | –
Cc1nn(CNc2ccccc2C(F)(F)F)c(=S)n1/N=C/c1ccc(F)cc1 | > 100 | > 100 | > 100 | – | > 100 | > 100 | > 100 | 70.6 | > 100 | > 100 | > 100 | 59.2 | > 100 | 60.3 | > 100 | 89.4 | > 100 | > 100 | 23.3 | –
COc1ccc(N2C(=O)C3c4[nH]c5ccccc5c4C4CCCCCCC4C3C2=O)cc1 (stereo unspecified) | 8.29 | 26 | > 100 | 16.5 | > 75.2 | 16.8 | 20.8 | 33.2 | 36.5 | – | – | – | – | – | – | – | – | – | – | –
CC[C@@]12C=CCN3CC[C@]4(c5cc(NC(=O)COc6cc(OCC(=O)Nc7cc8c(cc7OC)N(C)[C@H]7[C@@](O)(C(=O)OC)[C@H](OC(C)=O)[C@]9(CC)C=CCN%10CC[C@]87[C@@H]%109)cc7oc(-c8ccccc8)cc(=O)c67)c(OC)cc5N(C)[C@@H]4[C@](O)(C(=O)OC)[C@H]1OC(C)=O)[C@H]32 | 14.9 | > 100 | > 100 | > 100 | > 100 | 9.72 | 10.1 | – | 6.03 | 3.58 | 3.08 | > 100 | 2.15 | 3.25 | 21.7 | 3.86 | 2.58 | 2.63 | – | 3.29
CCOC(=O)c1c(-c2ccccc2)c(C(OC(c2ccccc2)c2c(-c3ccccc3)c(C(=O)OCC)n3ccccc23)c2ccccc2)c2ccccn12 (stereo unspecified) | > 100 | > 100 | > 100 | – | > 100 | > 100 | > 100 | > 100 | > 100 | – | – | – | – | – | – | – | – | – | – | –
COc1cc(C2c3cc4c(cc3[C@@H](N(C)C)[C@H]3COC(=O)C23)OCO4)cc(OC)c1O (stereo partly specified) | > 100 | > 100 | > 100 | > 100 | > 100 | – | > 100 | > 100 | 18.8 | – | – | – | – | – | – | – | – | – | – | –
COc1ccccc1NC(=O)C1=C(C)NC(C)=C(C(=O)Nc2ccccc2OC)C1c1ccc(N(C)C)cc1 | > 100 | 57.2 | > 100 | > 100 | 54.3 | 44.1 | 42.2 | 91.2 | 53.7 | – | – | – | – | – | – | – | – | – | – | –
COC(=O)C1Cc2c([nH]c3ccccc23)C(c2ccccc2O)N1Cc1ccccc1 (stereo unspecified) | 31.2 | > 63.5 | > 46.4 | 39.5 | > 46.4 | 39.2 | > 46.4 | 33.6 | > 31.6 | – | – | – | – | – | – | – | – | – | – | –
CC1=NOC(=O)C1N=Nc1ccc(Br)c(C)c1 (stereo unspecified) | 38.8 | 48.4 | 35.4 | 37.8 | 30.5 | 33.6 | – | 29.3 | – | – | – | – | – | – | – | – | – | – | – | –
CN1C(=O)C2C=CC1C1CCC2N(C)C1=O (stereo unspecified) | > 100 | – | > 100 | > 100 | > 100 | > 100 | > 100 | > 100 | > 100 | – | – | – | – | – | – | – | – | – | – | –
COC(=O)[C@]1(C)C(OC)=CC(=O)C2C1[C@H]1CCC[C@@H]21 (stereo partly specified) | > 100 | > 100 | > 100 | > 100 | > 100 | > 100 | > 100 | – | > 100 | – | – | – | – | – | – | – | – | – | – | –
COC(=O)c1ccc(CN2C(=O)C(Cl)=C(Nc3ccc(OC)c(Cl)c3)C2=O)cc1 | > 50 | > 50 | > 50 | 19.5 | > 50 | > 50 | 26.7 | – | 21.5 | 36.2 | 22.7 | 19.4 | 3.84 | 12.6 | > 50 | 4.17 | 21.6 | 5.66 | – | 7.26
CCOC(=O)c1c2c(n(Cc3ccccc3)c1C)-c1nc(Cc3ccccc3)[nH]c1C(=O)C2=O | 3.29 | 3.45 | 8.71 | 3.15 | 4.05 | 2.47 | 3.17 | 2.76 | – | 1.77 | 1.75 | 2.82 | – | 1.66 | 4.34 | 1.85 | 1.13 | 1.78 | 1.03 | 1.77
COC(=O)C(CC(=O)c1c[nH]c2ccccc12)c1c[nH]c2ccccc12 (stereo unspecified) | 57.7 | 54.8 | 30.4 | 50.4 | 66.7 | > 10 | – | 40.2 | – | – | – | – | – | – | – | – | – | – | – | –
C[C@]12CC[C@H]3[C@@H](CC[C@]4(O)C[C@@H](O)CC[C@]34CO)[C@@]1(O)CC[C@@H]2C1=CC(=O)OC1 | 11.7 | 3.89 | 12.7 | – | > 100 | 3.21 | 8.19 | – | 4.94 | – | – | – | – | – | – | – | – | – | – | –
Clc1ccc2c(c1)[nH]c1c2nc2sccn21 | > 100 | > 100 | > 100 | > 100 | > 100 | > 100 | > 100 | > 100 | > 100 | – | – | – | – | – | – | – | – | – | – | –
COc1cc(/C=C/c2ccc(OC)c(OC)c2OC)cc(OC)c1OC | 51.6 | 32.9 | 52.8 | 36.2 | > 69.3 | 39.3 | 30.8 | 70.9 | > 51.6 | – | – | – | – | – | – | – | – | – | – | –
ClCc1ccc(C2OCCO2)cc1 | 54.4 | 41.2 | 31.6 | 17.2 | > 31.6 | 49.2 | 24.5 | – | 28.6 | – | – | – | – | – | – | – | – | – | – | –
CC[C@H](Nc1nc(N)nc(C2CC2)c1C#N)c1nc2cccc(NCc3ccc(C(=O)NO)cc3)c2c(=O)n1-c1ccccc1 | 3.36 | 4.29 | 6.16 | – | > 100 | 4.55 | – | > 100 | 4.67 | 1.68 | 1.63 | 2.05 | 1.69 | 2.06 | 8.28 | 2.81 | 1.73 | – | 2.6 | –
